Measurements taken from paper PMC3643815 (Combinatorial chemistry & high throughput screening, 2011).
Where a name gives a salt, the structure may show the parent alone. Read-outs that look alike come from different tables or passages of the source.

How the values were obtained:
[1] = Solubility by laser nephelometry; conditions: dilutions up to 77 μM
[2] = molecular target: T1, human Cdc7-Dbf4 kinase (Cdc7-Dbf4 heterodimer) (Homo sapiens, UniProt O00311); test: Cdc7-Dbf4 kinase assay with the SPA method; type: biochemical; conditions: 45 mM EDTA in 1% DMSO, 25 μM [γ-33P]-ATP
[3] = molecular target: T1, human Cdc7-Dbf4 kinase (Cdc7-Dbf4 heterodimer); test: Cdc7-Dbf4 kinase assay with the LUM method; type: biochemical; conditions: for ADP production IC50: LUM method, 12.5 μM ATP, up to 77 μM compound, duplicate, N.E. = no effect
[4] = system: ADP processing (ATP depletion, ATP regeneration, luciferase reaction); test: Dose response in the ADP processing step of the LUM method; type: biochemical
[5] = system: luminescence detection (luciferase luminescence signal); test: Dose response in the luminescence detection step of the LUM method

T1 sequence (O00311 whole entry): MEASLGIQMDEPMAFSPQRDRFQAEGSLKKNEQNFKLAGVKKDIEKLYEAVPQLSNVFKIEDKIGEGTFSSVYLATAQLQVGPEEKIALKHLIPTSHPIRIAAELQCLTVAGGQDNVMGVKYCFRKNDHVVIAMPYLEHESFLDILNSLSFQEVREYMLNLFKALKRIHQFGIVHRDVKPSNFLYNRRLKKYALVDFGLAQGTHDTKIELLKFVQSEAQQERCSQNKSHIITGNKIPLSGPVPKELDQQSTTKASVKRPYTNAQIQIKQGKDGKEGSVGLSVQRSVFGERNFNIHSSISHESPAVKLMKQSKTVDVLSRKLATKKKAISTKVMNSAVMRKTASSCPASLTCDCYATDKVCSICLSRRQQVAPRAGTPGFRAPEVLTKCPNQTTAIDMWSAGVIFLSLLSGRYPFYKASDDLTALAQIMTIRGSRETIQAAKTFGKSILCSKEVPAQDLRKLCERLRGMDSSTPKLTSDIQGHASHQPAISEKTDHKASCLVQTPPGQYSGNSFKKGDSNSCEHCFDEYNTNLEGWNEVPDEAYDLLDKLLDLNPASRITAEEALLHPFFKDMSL
T1 sequence (Q9UBU7 whole entry partner): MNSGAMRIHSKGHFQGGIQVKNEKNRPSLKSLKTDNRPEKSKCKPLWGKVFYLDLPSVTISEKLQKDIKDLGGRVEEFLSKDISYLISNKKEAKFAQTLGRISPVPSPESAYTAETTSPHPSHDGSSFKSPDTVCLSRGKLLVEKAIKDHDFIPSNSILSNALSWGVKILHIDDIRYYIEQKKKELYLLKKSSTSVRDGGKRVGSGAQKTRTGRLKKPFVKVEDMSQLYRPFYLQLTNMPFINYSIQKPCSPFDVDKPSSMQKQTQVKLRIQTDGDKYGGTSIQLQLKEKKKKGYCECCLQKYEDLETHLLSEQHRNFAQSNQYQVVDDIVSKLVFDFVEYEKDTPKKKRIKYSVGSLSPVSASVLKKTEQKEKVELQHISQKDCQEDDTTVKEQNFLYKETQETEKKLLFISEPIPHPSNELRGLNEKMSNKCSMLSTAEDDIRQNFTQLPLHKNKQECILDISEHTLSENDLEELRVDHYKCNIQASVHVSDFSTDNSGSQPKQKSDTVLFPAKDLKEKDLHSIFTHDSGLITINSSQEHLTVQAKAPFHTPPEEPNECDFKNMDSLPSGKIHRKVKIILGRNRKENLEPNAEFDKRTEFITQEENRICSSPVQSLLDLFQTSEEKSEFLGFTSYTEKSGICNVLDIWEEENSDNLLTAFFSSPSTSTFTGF

Solubility [1] | ADP production IC50 [3] | Compound | also measured
Soluble |  | O=C1C=C2CC3(O)COc4c(ccc(O)c4O)C3=C2C=C1O (stereo not drawn) [Hematein] | 
 |  | O=C(O)CN(CCN(CC(=O)O)CC(=O)O)CC(=O)O [EDTA] | inhibition of Cdc7-Dbf4 kinase activity (control selection) [2]: inhibited the Cdc7-Dbf4 kinase activity
Soluble |  | CC(=O)Oc1cc(-c2coc3cc(OC(C)=O)c(OC(C)=O)c(OC(C)=O)c3c2=O)cc(OC(C)=O)c1OC(C)=O [Iriginol hexaaceatate] | 
Soluble | N.E. ^1 | O=c1c(O)cccc2cc(O)c(O)c(O)c12 [Purpurogallin] | 
Soluble |  | O=c1oc2c(O)c(O)cc3c(=O)oc4c(O)c(O)cc1c4c23 [Ellagic acid] | 
Soluble | N.E. | O=c1cc(-c2cc(O)c(O)c(O)c2)oc2cc(O)cc(O)c12 [Hieracin] | 
Soluble |  | O=c1c(-c2cc(O)c(O)c(O)c2)coc2cc(O)c(O)c(O)c12 [Irigenol] | 
Soluble | N.E. | O=C(CCCCC(=O)Nc1c(I)cc(I)c(C(=O)O)c1I)Nc1c(I)cc(I)c(C(=O)O)c1I [Iodipamide, reference compound] | 
Soluble |  | O=c1c(O)c(-c2ccc(O)c(O)c2)oc2cc(O)cc(O)c12 [Quercetin] | 
Soluble |  | O=C(O[C@@H]1Cc2c(O)cc(O)cc2O[C@@H]1c1cc(O)c(=O)c2c(O)c(O)cc([C@H]3Oc4cc(O)cc(O)c4C[C@H]3O)c2c1)c1cc(O)c(O)c(O)c1 [Theaflavin monogallates] | 
Soluble |  | N=C1C=CC(=C(c2ccc(N)cc2)c2ccc(N)cc2)C=C1 [Pararosaniline pamoate, reference compound] | 
Soluble | N.E. | O=c1c(O)c(-c2ccc(O)c(O)c2)oc2cc(O)ccc12 [Fisetin] | 
Soluble | N.E. | Pyrogallin | 
Soluble |  | O=C(O)/C=C/c1ccc(O)c(O)c1 [Caffeic acid] | 
Soluble |  | CN(C)c1ccc(C(=C2C=CC(=[N+](C)C)C=C2)c2ccc(N(C)C)cc2)cc1 [Gentian violet, reference compound] | inhibition at 10 µM ([3]; read-out: averaged percent inhibition (two data sets)): 23%; inhibition at 10 µM ([3]; read-out: percent inhibition, Set 1): 23%; inhibition at 10 µM ([3]; read-out: percent inhibition, Set 2): 23%
Soluble |  | O=C(O[C@@H]1Cc2c(O)cc(O)cc2O[C@@H]1c1cc(O)c(O)c(O)c1)c1cc(O)c(O)c(O)c1 [Epigallocatechin-3-monogallate] | 
Soluble | N.E. ^1 | CCOC(=O)[C@H](CCc1ccccc1)N[C@@H](C)C(=O)N1CCC[C@H]1C(=O)O [Enalapril maleate, reference compound] | 
Soluble |  | Tannic acid | concentration at which ATP depletion is inhibited [4]: higher than 0.2 μM; percent inhibition, Set 1 ([3]; LUM method pilot screen, 10 μM compound in 1% DMSO, Set 1 of duplicate): 46%; percent inhibition, Set 2 ([3]; LUM method pilot screen, 10 μM compound in 1% DMSO, Set 2 of duplicate): 52%; averaged percent inhibition (two data sets) ([3]; LUM method pilot screen, 10 μM compound, average of duplicate): 49%; concentration at which compound inhibits luminescence detection [5]: 10 µM

Compound | Solubility [1] | ADP production IC50 [3] | also measured
O=c1c(O)c(-c2cc(O)c(O)c(O)c2)oc2cc(O)cc(O)c12 [Myricetin] | Soluble |  | 
